Here are results for 8 molecules from US6025385A, “Taxane derivatives and drugs containing the same” (Kabushiki Kaisha Yakult Honsha, priority 1996, dated 2000).

In brackets after ≈: the same amount, converted by molar mass. Like-named read-outs stand apart in the source and are kept apart here.

For series [1], the system named is cell strain KB derived from a human mouth cancer. Nature of the series: Growth inhibitory activity against KB cells (XTT assay). The class given is cell-based. The settings on record: for GI50: Homo sapiens, 72 h, read-out: 50% Growth Inhibitory Concentration (GI50), KB; for Activity ratio: KB GI50 relative to Taxol (Taxol = 1.0). As to the method: Growth Inhibitory Activities of Taxane Derivatives (1)
As a cell strain KB derived from a human mouth cancer, one purchased from Dainippon Pharmaceutical Co., Ltd. and stored in a lyophilized form at The Central Research Center, Yakult Honsha Co., Ltd. was used. In Dulbeccols modefied Earglets medium containing 10% fetal bovine serum (product of NISSUI PHARMACEUTICAL CO., LTD.), the KB was maintenance-cultured under the following conditions: 5%, CO2 -air, 37° C.
Each compound was used by dissolving it at a concentration of 10 mg/ml in DMSO.
On Day-1, cells which were in a logarithmic growth phase were inoculated at 2,000 cells/100 μl/well on 96-well microtiter plates (Falcon #3072) by using a phenol-red-free culture medium with 10% fetal bovine serum contained therein (Dulbecco's molefied Eargle's medium (Sigma)), and were cultured overnight. On Day 0, the compounds each of which had been diluted to 0.03 to 10,000 ng/ml with the same culture medium were added in 100 μl aliquots to the individual wells, and the cells were cultured for 3 days. Three wells were used per each drug concentration. Each plate was provided with three blank wells containing only the culture medium and also with eight wells as a drug-untreated control.
Before use, XTT (Sigma) was dissolved at a concentration of 1 mg/me in each culture media which as free of serum. Phenodin methosulfate (Sigma) dissolved at a concentration of 5 mM in PBS was added to the resulting solution at a volume ratio of 1/200. To each well, the solution so prepared was added in an amount of 50 μl per well. Subsequent to culture for 4 hours, OD was measured at 450 nm by ELISA.
Calculation of 50% Growth Inhibitory Concentration (GI50)
GI50 was calculated by interpolation from a concentration-growth inhibition rate (GIR). GIR was determined in accordance with the following formula: [formula] Bibiography Scudiero D A, et al., Cacer Res., 48, 4827-4833, 1988.
1994 Report of The Anticancer Agent Screening Special Committee, "Cancers and Chemotherapy", 21, 1306-1307.
Background: Tetrazolium dyes change colour on reduction, which living cells bring about.

The conditions of series [2]: background statement; cited from earlier work.
A short description of series [3]: Solubility in water (HPLC, shaken 2 hours at room temperature). The settings on record: for Dissolved amount (Y): amount in 5 μl injected, purified water with 0.1 N hydrochloric acid, room temperature, 2 hours; for solubility thermodynamic at 2 h: water with 0.1 n hcl. The procedure:
I) Preparation of calibration curves:
Using 20 μl portions of the standard solutions, tests were conducted by HPLC (operation conditions 1).
[HPLC operation conditions 1]
Column: Inertsil ODS-2 (5-250), 40 deg.
Mobile phase: 0.01 M KH2 PO4 --CH3 CN (5:4).
Detection: Ultraviolet absorption photometer (225 nm), 0.08AUFS.
To the respective suspensions, 0.1 N hydrochloric acid was added in amounts of 35 λl and 30 μl (1.1 eq.). By ultrasonication the resulting mixtures were formed into uniform suspensions, which were then shaken at room temperature for 2 hours. The thus-obtained mixtures were filtered through membrane filters (0.22 pm), and the filtrates were provided as test solutions. Using 5 μl portions of the test solutions, tests were conducted by HPLC (operation conditions 1).
I) Preparation of calibration curve:
By ultra-sonication the suspension was formed into a uniform suspension, which was then shaken at room temperature for 2 hours.
Using 20 At of the standard solution, a test was conducted by HPLC (operation conditions 1).
Operation conditions for the HPLC operation were set as in Test 1.
By ultrasonication the resulting mixture was formed into a uniform suspension, which was then shaken at room temperature for 2 hours. The mixture was filtered through a membrane filter (0.22 pm), and the filtrate was provided as a test solution. Using 5 μl of the test solution, a test was conducted by HPLC (the above operation conditions).

Series [4] concerns ovarian cancer and breast cancer. Particulars: Ann. int. Med. 111, 273, 1989; cited from earlier work.
The mark [5] stands for this setting: purified water with hydrochloric acid.

Consider `CC(=O)O[C@@]12CO[C@@H]1C[C@H](O)[C@@]1(C)C(=O)[C@H](OC(=O)N3CCN(C)CC3)C3=C(C)[C@@H](OC(=O)[C@H](O)[C@@H](NC(=O)OC(C)(C)C)c4ccccc4)C[C@@](O)([C@@H](OC(=O)c4ccccc4)[C@H]21)C3(C)C` [Compound 39, 13-O-[3-(tert-Butoxycarbonylamino)-2-hydroxy-3-phenylpropionyl]-10-O-(4-methylpiperazinocarbonyl)-10-deacetylbaccatin III], for which the GI50 in series [1] (KB cells, 3 days culture, XTT) is 0.59 ng/mL (≈ 0.000632 µM). Further, the Activity ratio in series [1] is given as 3.4.
As for `CC(=O)O[C@@]12CO[C@@H]1C[C@H](O)[C@@]1(C)C(=O)[C@H](OC(=O)N3CCN(CC(=O)NC(C)C)CC3)C3=C(C)[C@@H](OC(=O)[C@H](O)[C@@H](NC(=O)OC(C)(C)C)c4ccccc4)C[C@@](O)([C@@H](OC(=O)c4ccccc4)[C@H]21)C3(C)C` [Compound 45, 13-O-[3-(tert-Butoxycarbonylamino)-2-hydroxy-3-phenylpropionyl]-10-O-[4-(isopropylaminocarbonylmethyl)piperazinocarbonyl]-10-deacetylbaccatin III], in series [1] (KB cells, 3 days culture, XTT), the GI50 is 0.86 ng/mL (≈ 0.000844 µM). The Activity ratio in series [1] is on record as 2.3.
The solubility is how much of the substance goes into solution per volume. High values mean a readily soluble substance, low ones a poorly soluble substance. With `CC(=O)O[C@H]1C(=O)[C@@]2(C)[C@H]([C@H](OC(=O)c3ccccc3)[C@]3(O)C[C@H](OC(=O)[C@H](O)[C@@H](NC(=O)c4ccccc4)c4ccccc4)C(C)=C1C3(C)C)[C@]1(OC(C)=O)CO[C@@H]1C[C@@H]2O` [Taxol, reference compound], in series [1] (KB), the GI50 worked out at 2 ng/mL (≈ 0.00234 µM). Besides, in series [2], the “solubility in water (in words)” value is given as “sparingly soluble in water”. This molecule also registered a solubility at 2 h in series [3] (purified water) of 0.4 µg/mL (≈ 0.468 µM). The “efficacy against ovarian cancer and breast cancer” value in series [4] is “high efficacy against ovarian cancer and breast cancer”.
On to `CCCN(CCC)C1CCN(C(=O)O[C@H]2C(=O)[C@@]3(C)[C@H]([C@H](OC(=O)c4ccccc4)[C@]4(O)C[C@H](OC(=O)[C@H](O)[C@@H](NC(=O)OC(C)(C)C)c5ccccc5)C(C)=C2C4(C)C)[C@]2(OC(C)=O)CO[C@@H]2C[C@@H]3O)CC1` [Compound 6, 13-O-[3-(tert-Butoxycarbonylamino)-2-hydroxy-3-phenylpropionyl]-10-O-(4-dipropylaminopiperidinocarbonyl)-10-deacetylbaccatin III], for which the GI50 in series [1] (KB) was 0.73 ng/mL (≈ 0.000717 µM). In addition, the Activity ratio in series [1] worked out at 2.7.
For orientation: solubility (thermodynamic) means solubility found after equilibrating the solid with the medium. On to `CC(=O)O[C@H]1C(=O)[C@@]2(C)[C@H]([C@H](OC(=O)c3ccccc3)[C@]3(O)C[C@H](OC(=O)[C@H](O)[C@@H](NC(=O)N4CCC(N5CCCCC5)CC4)c4ccccc4)C(C)=C1C3(C)C)[C@]1(OC(C)=O)CO[C@@H]1C[C@@H]2O` [Compound 58, 13-O-[2-Hydroxy-3-phenyl-3-(4-piperidinopiperidinocarbonylamino)propionyl]baccatin III], for which, in series [3], the “Dissolved amount (Y)” value is recorded as 7.95 μg/5 μl and the thermodynamic solubility at 2 h turned out to be 1590 µg/mL (≈ 1680 µM). For the same molecule, the concentration in solution in series [3] (setting [5]) (solubility at 2 h) was 1590 µg/mL (≈ 1680 µM).
Turning to `CC(=O)O[C@@]12CO[C@@H]1C[C@H](O)[C@@]1(C)C(=O)[C@H](OC(=O)N3CCC(N(C)C)CC3)C3=C(C)[C@@H](OC(=O)[C@H](O)[C@@H](NC(=O)OC(C)(C)C)c4ccccc4)C[C@@](O)([C@@H](OC(=O)c4ccccc4)[C@H]21)C3(C)C` [Compound 3, 13-O-[3-(tert-Butoxycarbonylamino)-2-hydroxy-3-phenylpropionyl]-10-O-(4-dimethylaminopiperidinocarbonyl)-10-deacetylbaccatin III], in series [3], the “Dissolved amount (Y)” value came to 6.31 μg/5 μl and the solubility (thermodynamic) at 2 h was 1260 µg/mL (≈ 1310 µM). For the same molecule, in series [3] (setting [5]), the solubility at 2 h was 1260 µg/mL (≈ 1310 µM).
For the molecule `CC(=O)O[C@@]12CO[C@@H]1C[C@H](O)[C@@]1(C)C(=O)[C@H](OC(=O)N3CCC(N4CCCCC4)CC3)C3=C(C)[C@@H](OC(=O)[C@H](O)[C@@H](NC(=O)OC(C)(C)C)c4ccccc4)C[C@@](O)([C@@H](OC(=O)c4ccccc4)[C@H]21)C3(C)C` [Compound 9, 13-O-[3-(tert-Butoxycarbonylamino)-2-hydroxy-3-phenylpropionyl]-10-O-(4-piperidinopiperidinocarbonyl)-10-deacetylbaccatin III], the GI50 in series [1] (KB cells, 3 days culture, XTT) was determined as 0.78 ng/mL (≈ 0.000778 µM). Further, in series [1], the Activity ratio is listed as 2.6.
In the case of `CCN1CCN(C(=O)O[C@H]2C(=O)[C@@]3(C)[C@H]([C@H](OC(=O)c4ccccc4)[C@]4(O)C[C@H](OC(=O)[C@H](O)[C@@H](NC(=O)OC(C)(C)C)c5ccccc5)C(C)=C2C4(C)C)[C@]2(OC(C)=O)CO[C@@H]2C[C@@H]3O)CC1` [Compound 42, 13-O-[3-(tert-Butoxycarbonylamino)-2-hydroxy-3-phenylpropionyl]-10-O-(4-ethylpiperazinocarbonyl)-10-deacetylbaccatin III], the GI50 in series [1] (KB) was found to be 0.65 ng/mL (≈ 0.000686 µM). Also, in series [1], the Activity ratio was found to be 3.1. Further, in series [3], the “Dissolved amount (Y)” value is reported as 5.90 μg/5 μl and the thermodynamic solubility at 2 h turned out to be 1180 µg/mL (≈ 1240 µM). The molecule also gave a solubility at 2 h in series [3] (setting [5]) of 1180 µg/mL (≈ 1240 µM).
